The results in this text go back to PubChem BioAssay (NCI).

The structures appear in SMILES notation. Where “and” joins values, the source holds several entries; their conditions need not be identical. Equal entries are not always repeated.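 Compound exposure: 48 hours, 5 concentrations, 96-well plates. GI50 is the concentration that inhibits growth by half. TGI: total growth inhibition.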

Holding throughout (assay): growth of human tumour cells (NCI), 48 h
For assay [1], the system named is OVCAR-3 ovarian.
The subject of assay [2] is PC-3 prostate.
In assay [3] the test system is OVCAR-5 ovarian.
Assay [4] has as its system COLO 205 colon.
Assay [5] deals with CAKI-1 renal.
In assay [6] the test system is HL-60(TB) leukemia.
Assay [7] concerns MCF7 breast.
In assay [8] the test system is HCT-116 colon.
Assay [9] deals with UO-31 renal.
For assay [10], the system named is K-562 leukemia.

As to `O=[N+]([O-])c1ccc(Sc2ccncn2)c([N+](=O)[O-])c1`, the GI50 in assay [1] is 1.46 µM; in assay [2], 3.98 µM; in assay [3] it was 5.25 µM; in [4], 2.55 µM; in assay [5] it was 0.602 µM; in assay [6], 0.174 µM. Besides, the GI50 in assay [7] was 2.46 µM; in assay [8] it was 0.726 µM; in assay [9], 1.08 µM; in assay [10] it was 0.277 µM. Further, the TGI in [1] came to 2.82 µM; in assay [2] it was 15.7 µM; in assay [3] it was 17.7 µM; in assay [4] it was 6.5 µM; in assay [5], 1.93 µM; in assay [6] it was 0.677 µM. The TGI came out at 7.74 µM in [7], 2 µM in assay [8], 2.84 µM in assay [9] and 1.95 µM in assay [10].
As to `Cc1cc(=O)oc2cc(OC/C=C3\CCC(=O)O3)ccc12`, the GI50 in [1] is 12.2 µM; in assay [2], 9.01 µM; in assay [3], 17.1 µM; in [4] it was 5.8 µM; in assay [5], 7.59 µM; in assay [6] it was 4.47 µM. The figures for the GI50 in assay [7], in assay [8] and in assay [9] were 5.73 µM, 8.38 µM and 12.8 µM, respectively. In addition, the TGI in assay [1] was found to be 28.8 µM; in [2], 34.1 µM; in assay [3], 36.4 µM; in assay [4], 20.5 µM; in [5], 26.8 µM; in assay [6], 32.2 µM. Also, the TGI was found to be 27.6 µM in [7], 24.6 µM in assay [8], 26.3 µM in assay [9] and 7.84 µM in assay [10].
Take `COc1cccc2c1C(=O)c1c(O)c3c(c(O)c1C2=O)CC(O)(C(=O)CO)CC3OC1CC(N)C(O)C(C)O1` (centres undefined): the GI50 was 22.6 µg/mL and 35.8 µg/mL in [1]; 37.2 µg/mL and 52.2 µg/mL in [2]; 75 µg/mL and > 150 µg/mL in [3]; 9.99 µg/mL and 25.6 µg/mL in [4]; 16.3 µg/mL and 64 µg/mL in assay [5]; 2.84 µg/mL and 26.4 µg/mL in [6]. Besides, the GI50 is 2.76 µg/mL and 10.7 µg/mL in assay [7]; 7.26 µg/mL and 17.4 µg/mL in assay [8]; 59 µg/mL and > 150 µg/mL in assay [9]; 9.4 µg/mL and 25.2 µg/mL in assay [10]. The TGI in [1] is 75 µg/mL and > 150 µg/mL; in assay [2], 75 µg/mL and > 150 µg/mL; in assay [3] it was 75 µg/mL and > 150 µg/mL; in [4], 75 µg/mL and > 150 µg/mL; in assay [5], 75 µg/mL and > 150 µg/mL; in assay [6] it was 75 µg/mL and > 150 µg/mL. Besides, the TGI in [7] was 75 µg/mL and > 150 µg/mL; in assay [8] it was 75 µg/mL and > 150 µg/mL; in assay [9], 75 µg/mL and > 150 µg/mL; in assay [10], 75 µg/mL and > 150 µg/mL.
Turning to `C[C@@H](Oc1cc(-n2cnc3ccc(OC[C@@H](O)CO)cc32)sc1C(N)=O)c1ccccc1Cl`, the GI50 is 0.0491 µM in [1]; 0.126 µM in [2]; 0.414 µM in assay [3]; 0.0743 µM in assay [4]; 12.2 µM in assay [5]; 0.0684 µM in [6]. Also, the GI50 is 0.025 µM in assay [7], 0.116 µM in [8], 8.39 µM in assay [9] and 0.0804 µM in assay [10]. In addition, the TGI in [1] was 0.176 µM; in assay [2], more than 25 µM; in [3], more than 25 µM; in assay [4], more than 25 µM; in assay [5] it was more than 25 µM; in [6] it was 0.869 µM. Also, the TGI in assay [7], in assay [8], in assay [9] and in assay [10] was more than 25 µM each time.
For the compound `[CH3][Sn]([CH3])([CH3])[O][N+](=O)[O-]`, the GI50 is 5.06 µM in assay [1]; more than 10 µM in [2]; 6.73 µM in assay [3]; more than 10 µM in assay [4]; 4.24 µM in [5]; 4.03 µM in [6]. For the same compound, the GI50 in assay [7] was 2.87 µM; in assay [8] it was 2.9 µM; in assay [9], more than 10 µM; in assay [10] it was 2.63 µM. Also, the TGI in [1], in [2], in [3], in assay [4], in assay [5] and in assay [6] was more than 10 µM throughout. Moreover, the TGI in assay [7] is more than 10 µM; in assay [8], more than 10 µM; in assay [9], more than 10 µM; in [10] it was 7.39 µM.
For `Nc1ncnc2c1ccn2[C@@H]1O[C@H]([C@H](O)c2ccc(Cl)c(F)c2)[C@@H](O)[C@H]1O`, the GI50 in assay [1], in assay [2], in [3], in assay [4], in assay [5] and in assay [6] was more than 100 µM each time. Moreover, the GI50 is 50.2 µM in assay [7], more than 100 µM in [8], 45.3 µM in [9] and more than 100 µM in [10]. Also, the TGI in [1], in assay [2], in assay [3], in [4], in [5] and in assay [6] was more than 100 µM each time. The TGI in [7], in assay [8], in assay [9] and in assay [10] was more than 100 µM each time.
As for `COCc1c(-c2ccc(NC(=O)Nc3cc(C(F)(F)F)ccc3F)c(F)c2)c2c(N)ncnn2c1CN1CCOCC1`, the GI50 is 3.37 µM in assay [1]; 2.88 µM in assay [2]; 3.32 µM in assay [3]; 1.05 µM in assay [4]; 1.9 µM in assay [5]; 3.46 µM in assay [6]. Further, the GI50 in assay [7] was 2.2 µM; in [8], 1.7 µM; in assay [9] it was 1.59 µM; in assay [10], 1.18 µM. The TGI in assay [1] is more than 10 µM; in assay [2], more than 10 µM; in [3] it was more than 10 µM; in [4], 2.71 µM; in assay [5], more than 10 µM; in [6], more than 10 µM. In addition, the TGI in assay [7] is 8.23 µM; in [8], more than 10 µM; in [9] it was more than 10 µM; in assay [10], more than 10 µM.
Turning to `Cc1cc(Cl)cc(Cc2cc(Cl)cc(C)c2O)c1O`, the GI50 in assay [1] was 2.35 µM; in [2], 2.55 µM; in assay [3], 3.35 µM; in assay [4], 5.72 µM; in assay [5], 2.32 µM; in assay [6] it was 2.94 µM. Also, the GI50 in [7] is 2.47 µM; in [8], 2.13 µM; in assay [9], 2.06 µM; in assay [10], 3.08 µM. Further, the TGI in [1] stood at 7.83 µM; in assay [2], 8.68 µM; in assay [3] it was 12.3 µM; in assay [4], 18.8 µM; in [5], 9.57 µM; in [6], 8.09 µM. Further, the TGI was found to be 9.66 µM in assay [7], 5.54 µM in [8], 10.6 µM in assay [9] and 12.1 µM in assay [10].
`COC(=O)[C@]12CC[C@@H](C)[C@H](C)[C@@H]1C1=CC[C@@H]3[C@@]4(C)C(C=O)=C[C@@](C)(COC(=O)/C=C/c5ccccc5)[C@@H]4[C@H](O)C[C@@]3(C)[C@]1(C)CC2`: the GI50 in assay [1] was 2.35 µM; in assay [2], 2.22 µM; in [3], 3.08 µM; in [4] it was 2.3 µM; in assay [5] it was 3.56 µM; in assay [6], 2.48 µM. Moreover, the GI50 in [7] is 2.37 µM; in assay [8], 3.06 µM; in assay [9] it was 3.28 µM; in assay [10] it was 3.53 µM. Further, the TGI in assay [1] is 5.53 µM; in [2], more than 100 µM; in [3], 13.6 µM; in [4], 5.33 µM; in assay [5], more than 100 µM; in [6], 5.97 µM. The TGI was 11.3 µM in assay [7], 13.7 µM in assay [8], 20.2 µM in [9] and more than 100 µM in assay [10].
Regarding `C/C(=N/N=C(N)N)c1ccc(NC(=O)Nc2ccc(/C(C)=N/N=C(N)N)cc2)cc1`, the GI50 in assay [1] is 18.6 µM; in assay [2], 14.4 µM; in assay [3], 17.9 µM; in assay [4] it was 43.3 µM; in assay [5], 22.4 µM; in assay [6] it was 7.89 µM. Also, the GI50 in assay [7] is 4.48 µM; in assay [8], 28 µM; in [9], 40.8 µM; in assay [10] it was 5.84 µM. Further, the TGI was more than 61.6 µM in [1]; 46.9 µM in assay [2]; 56.6 µM in [3]; more than 100 µM in assay [4]; more than 100 µM in [5]; more than 28.4 µM in assay [6]. Besides, the TGI is 31.2 µM in [7], more than 100 µM in assay [8], more than 100 µM in assay [9] and more than 59.9 µM in assay [10].
Take `O=C(O)Cc1cccc2c(=O)c3cccc([N+](=O)[O-])c3oc12`: the TGI in assay [1], in [2], in [3], in assay [4], in assay [5] and in assay [6] was more than 100 µM throughout. Also, the TGI in assay [7], in [8], in assay [9] and in assay [10] was more than 100 µM each time.
